In ChEMBL document CHEMBL1138933 (J Med Chem, 2006):
Activity calls are given as the source filed them. No cut-off for these calls is given here.

Tests used:
[1] = target: Sodium-dependent serotonin transporter (Homo sapiens, UniProt P31645); type: cell-based, JAR
Description: Inhibition of [3H]5-HT uptake at human 5-HT transporter expressed in Jar cells

[2] = target: Adrenergic receptor alpha-1 (Rattus norvegicus) (UniProt P15823+P23944+P43140); experiment: Displacement of [3H]prazosin from alpha-1 adrenergic receptor in Sprague-Dawley rat cortical membranes at 1 uM; type: cell membranes; conditions: Membrane
Rattus norvegicus = experiment: Increase of 5-HT levels in Sprague-Dawley rat frontal cortex at 30 mg/kg, po relative to control by microdialysis assay; type: functional, organism-based; parameters: dose 30 mg/kg
[3] = target: Sodium-dependent serotonin transporter (Rattus norvegicus, UniProt P31652)
Sequence of Sodium-dependent serotonin transporter (Rattus norvegicus, UniProt P31652) (P31652 whole entry): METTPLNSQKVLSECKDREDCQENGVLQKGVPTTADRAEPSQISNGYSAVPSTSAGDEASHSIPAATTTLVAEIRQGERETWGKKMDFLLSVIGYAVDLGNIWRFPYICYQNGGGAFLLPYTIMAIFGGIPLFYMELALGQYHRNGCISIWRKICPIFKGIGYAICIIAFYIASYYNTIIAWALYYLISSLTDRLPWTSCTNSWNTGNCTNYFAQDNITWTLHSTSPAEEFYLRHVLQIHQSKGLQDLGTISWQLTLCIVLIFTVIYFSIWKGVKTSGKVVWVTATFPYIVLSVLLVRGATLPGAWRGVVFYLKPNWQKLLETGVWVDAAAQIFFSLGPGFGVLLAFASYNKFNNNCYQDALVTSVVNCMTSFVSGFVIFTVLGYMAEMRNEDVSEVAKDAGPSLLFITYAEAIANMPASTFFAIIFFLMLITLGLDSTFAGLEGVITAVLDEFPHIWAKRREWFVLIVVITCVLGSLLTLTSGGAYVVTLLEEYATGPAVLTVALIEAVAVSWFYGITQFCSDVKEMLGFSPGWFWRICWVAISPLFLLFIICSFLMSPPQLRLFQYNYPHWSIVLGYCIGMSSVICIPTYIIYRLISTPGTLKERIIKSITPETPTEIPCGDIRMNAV
Description: Displacement of [3H]paroxetine from 5-HT transporter in Sprague-Dawley rat cortical membranes

[4] = target: T1, Adrenergic receptor alpha-1 (Rattus norvegicus, UniProt P15823+P23944+P43140); experiment: Displacement of [3H]prazosin from alpha-1 adrenergic receptor in Sprague-Dawley rat cortical membranes; type: cell membranes, Membrane
T1 sequence (P15823 whole entry): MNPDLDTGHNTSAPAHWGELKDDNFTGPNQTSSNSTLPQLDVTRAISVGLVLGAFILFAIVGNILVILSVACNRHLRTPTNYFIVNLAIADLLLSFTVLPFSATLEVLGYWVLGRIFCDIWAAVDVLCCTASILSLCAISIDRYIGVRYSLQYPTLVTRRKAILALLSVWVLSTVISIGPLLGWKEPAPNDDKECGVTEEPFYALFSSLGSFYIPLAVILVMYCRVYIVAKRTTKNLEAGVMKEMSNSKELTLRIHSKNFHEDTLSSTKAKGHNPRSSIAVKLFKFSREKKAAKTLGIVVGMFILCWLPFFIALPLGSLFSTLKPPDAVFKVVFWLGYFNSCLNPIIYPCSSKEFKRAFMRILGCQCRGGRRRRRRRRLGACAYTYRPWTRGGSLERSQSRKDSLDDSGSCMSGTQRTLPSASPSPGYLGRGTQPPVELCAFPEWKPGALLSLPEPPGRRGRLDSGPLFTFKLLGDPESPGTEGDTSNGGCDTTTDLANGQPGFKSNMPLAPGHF
T1 sequence (P23944 whole entry): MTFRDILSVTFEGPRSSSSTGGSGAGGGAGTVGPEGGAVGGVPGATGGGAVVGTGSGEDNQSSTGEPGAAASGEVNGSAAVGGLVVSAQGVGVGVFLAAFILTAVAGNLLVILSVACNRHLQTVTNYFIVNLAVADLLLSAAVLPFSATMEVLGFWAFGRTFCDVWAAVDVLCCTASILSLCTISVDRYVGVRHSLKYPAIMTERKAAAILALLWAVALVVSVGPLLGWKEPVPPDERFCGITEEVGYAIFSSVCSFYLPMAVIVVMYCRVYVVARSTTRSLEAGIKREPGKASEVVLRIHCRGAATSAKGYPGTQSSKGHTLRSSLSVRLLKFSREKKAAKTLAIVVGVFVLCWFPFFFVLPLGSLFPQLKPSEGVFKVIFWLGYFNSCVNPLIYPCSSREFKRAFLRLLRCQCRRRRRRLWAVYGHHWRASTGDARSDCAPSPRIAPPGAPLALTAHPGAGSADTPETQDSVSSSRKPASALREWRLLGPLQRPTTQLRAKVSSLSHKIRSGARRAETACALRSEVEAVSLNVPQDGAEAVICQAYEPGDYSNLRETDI
T1 sequence (P43140 whole entry): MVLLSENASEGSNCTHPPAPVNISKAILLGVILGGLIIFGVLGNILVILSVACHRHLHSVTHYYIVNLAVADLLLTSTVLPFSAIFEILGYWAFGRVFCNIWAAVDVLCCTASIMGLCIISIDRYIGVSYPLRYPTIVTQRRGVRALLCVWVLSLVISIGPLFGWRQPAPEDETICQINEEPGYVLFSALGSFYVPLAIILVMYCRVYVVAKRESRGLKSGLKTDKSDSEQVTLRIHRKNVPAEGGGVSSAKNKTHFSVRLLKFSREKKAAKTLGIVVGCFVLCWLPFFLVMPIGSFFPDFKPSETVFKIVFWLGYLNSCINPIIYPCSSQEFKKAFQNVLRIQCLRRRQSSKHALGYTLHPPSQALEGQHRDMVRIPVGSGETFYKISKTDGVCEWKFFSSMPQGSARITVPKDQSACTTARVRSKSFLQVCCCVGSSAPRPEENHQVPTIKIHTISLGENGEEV

[5] = target: T2, 5-hydroxytryptamine receptor 1A (Homo sapiens) (UniProt P08908); experiment: Agonist activity at human 5HT1A receptor expressed in CHO cells by inhibition of […] forskolin-stimulated cAMP production relative to 5-HT; type: functional, cell-based
T2 sequence (whole entry): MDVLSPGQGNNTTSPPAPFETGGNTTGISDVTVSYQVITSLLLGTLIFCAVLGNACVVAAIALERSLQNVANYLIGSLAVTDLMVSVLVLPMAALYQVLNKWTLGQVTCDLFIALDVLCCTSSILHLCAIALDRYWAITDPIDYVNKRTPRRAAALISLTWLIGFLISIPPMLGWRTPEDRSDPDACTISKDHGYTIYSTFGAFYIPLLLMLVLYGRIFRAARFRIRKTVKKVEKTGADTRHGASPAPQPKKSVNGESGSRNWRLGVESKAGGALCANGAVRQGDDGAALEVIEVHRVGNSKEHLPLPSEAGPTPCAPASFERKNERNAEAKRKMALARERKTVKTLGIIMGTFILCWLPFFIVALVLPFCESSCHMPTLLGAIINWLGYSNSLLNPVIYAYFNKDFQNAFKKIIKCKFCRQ

[6] = target: T3, 5-hydroxytryptamine receptor 1A (Homo sapiens, UniProt P08908); experiment: biochemical
T3 sequence (P08908 whole entry): T2 sequence (whole entry)
Description: Displacement of [3H]-8-OH-DPAT from human 5HT1A receptor expressed in CHO cells

[7] = target: T3, 5-hydroxytryptamine receptor 1A

Sequence of Sodium-dependent serotonin transporter (Homo sapiens, UniProt P31645) (P31645 whole entry): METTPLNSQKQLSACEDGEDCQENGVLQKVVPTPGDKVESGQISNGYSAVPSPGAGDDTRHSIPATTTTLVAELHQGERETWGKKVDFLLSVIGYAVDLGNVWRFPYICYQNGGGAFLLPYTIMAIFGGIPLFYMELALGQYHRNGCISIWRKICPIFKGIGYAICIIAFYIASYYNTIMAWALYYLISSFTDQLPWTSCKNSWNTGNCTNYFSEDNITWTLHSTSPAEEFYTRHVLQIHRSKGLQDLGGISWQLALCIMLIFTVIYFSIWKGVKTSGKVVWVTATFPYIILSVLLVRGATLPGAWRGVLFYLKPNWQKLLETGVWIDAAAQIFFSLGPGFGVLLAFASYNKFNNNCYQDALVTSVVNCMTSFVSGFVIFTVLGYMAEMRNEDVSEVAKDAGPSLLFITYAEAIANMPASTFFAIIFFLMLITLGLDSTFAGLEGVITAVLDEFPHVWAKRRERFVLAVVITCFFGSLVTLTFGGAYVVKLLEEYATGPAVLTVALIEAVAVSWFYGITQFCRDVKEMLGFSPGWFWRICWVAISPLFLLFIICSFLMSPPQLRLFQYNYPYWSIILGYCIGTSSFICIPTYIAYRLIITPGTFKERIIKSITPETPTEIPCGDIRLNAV

IC50 [1] [nM]	inhibition [2] [%]	Ki [3] [nM]	Ki [4] [nM]	Emax [5] [%]	Ki [6] [nM]	IC50 [7] [nM]	SMILES	Activity (Rattus norvegicus)
18.7	21	1.5					NC(=O)c1ccc(F)c2c1C[C@@H](N(CCCc1c[nH]c3ccc(F)cc13)C1CCC1)CO2	Active
17.4		5.3					NC(=O)c1ccc(F)c2c1C[C@H](N(CCCc1c[nH]c3ccc(F)cc13)C1CCC1)CO2	
59.7		3.9	2023				NC(=O)c1ccc(F)c2c1C[C@@H](N(CCCc1c[nH]c3ccc(F)cc13)CC1CC1)CO2	
36.3	26	4.2		69			NC(=O)c1ccc(F)c2c1C[C@H](N(CCCc1c[nH]c3ccc(F)cc13)CC1CC1)CO2	
37.3		3.6	545	91	18.6		CCN(CCCc1c[nH]c2ccc(F)cc12)[C@@H]1COc2c(F)ccc(C(N)=O)c2C1	
732	15					23	COc1cccc2c1C[C@@H](N(CCCc1c[nH]c3ccc(F)cc13)C1CCC1)CO2	
42.7		3.4	640		34.9	135	CCN(CCCc1c[nH]c2ccc(F)cc12)[C@H]1COc2c(F)ccc(C(N)=O)c2C1	
59.9	46	4.7		97	3.2		CCCN(CCCc1c[nH]c2ccc(F)cc12)[C@@H]1COc2c(F)ccc(C(N)=O)c2C1	
197	21	20.4		85	45.2		NC(=O)c1ccc(F)c2c1C[C@@H](NCCCc1c[nH]c3ccc(F)cc13)CO2	
116	37	14.8			266		CN(CCCc1c[nH]c2ccc(F)cc12)[C@H]1COc2c(F)ccc(C(N)=O)c2C1	
181		8	1150	78	1.5		CCCN(CCCc1c[nH]c2ccc(F)cc12)[C@H]1COc2c(F)ccc(C(N)=O)c2C1	
24.1		0.4	328		330	> 1000	CCN(CCCCc1c[nH]c2ccc(F)cc12)C1COc2c(F)ccc(C(N)=O)c2C1 (racemic)	
64			207	96	2.3		CCN(CCCc1c[nH]c2ccc(F)cc12)C1COc2cccc(OC)c2C1 (racemic)	
217		12.2	494		4.4		CCCN(CCCCc1c[nH]c2ccc(F)cc12)C1COc2c(F)ccc(C(N)=O)c2C1 (racemic)	
15			610	91			COc1cccc2c1CC(N(C)CCCc1c[nH]c3ccc(F)cc13)CO2 (racemic)	
42.6	44			91			COc1cccc2c1CC(N(CCCc1c[nH]c3ccc(F)cc13)CC1CC1)CO2 (racemic)	
> 1000		88	484		17.6		CCCN(CCc1c[nH]c2ccc(F)cc12)C1COc2c(F)ccc(C(N)=O)c2C1 (racemic)	
128		7.1		84	3.5		CCCN(CCCc1c[nH]c2ccc(F)cc12)C1COc2c(F)ccc(C(N)=O)c2C1 (racemic)	
300		10.4	645			24	NC(=O)c1ccc(F)c2c1CC(N(CCCCc1c[nH]c3ccc(F)cc13)C1CCC1)CO2 (racemic)	
386			820	80			CCCN(CCCc1c[nH]c2ccc(F)cc12)C1COc2cccc(OC)c2C1 (racemic)	
> 1000		97.8	636		7.3		NC(=O)c1ccc(F)c2c1CC(N(CCc1c[nH]c3ccc(F)cc13)CC1CC1)CO2 (racemic)	
25.2	16	3					NC(=O)c1ccc(F)c2c1CC(N(CCCc1c[nH]c3ccc(F)cc13)C1CCC1)CO2 (racemic)	
82.4		3.3	506		2.1		NC(=O)c1ccc(F)c2c1CC(N(CCCCc1c[nH]c3ccc(F)cc13)CC1CC1)CO2 (racemic)	
400	15			37			COc1cccc2c1CC(N(CCCc1c[nH]c3ccc(F)cc13)C1CCC1)CO2 (racemic)	
53.5	32	3.5					NC(=O)c1ccc(F)c2c1CC(N(CCCc1c[nH]c3ccc(F)cc13)CC1CC1)CO2 (racemic)	

SMILES	IC50 [1] [nM]	inhibition [2] [%]	Ki [3] [nM]	Ki [4] [nM]	Emax [5] [%]	Ki [6] [nM]	IC50 [7] [nM]	Activity (Rattus norvegicus)
CCN(CCc1c[nH]c2ccc(F)cc12)C1COc2c(F)ccc(C(N)=O)c2C1 (racemic)	883		60.2	416		33.2		
